According to the NIST ThermoML archive (doi:10.1016/j.jct.2013.07.003):
Numbers after ± are expanded uncertainties.

How the values were obtained:
[1] = refractive index (Na D-line) (dimensionless); settings: 101.33 kPa, Liquid, Standard Abbe refractometry
[2] = 298.2 K; 101.33 kPa; Liquid; Vibrating tube method
[3] = relative permittivity at various frequencies (dimensionless); settings: 101 kPa, Liquid, Frequency=0.1 MHz, Coaxial cylinder capacitor
[4] = relative permittivity at various frequencies (dimensionless); xn = mol fraction of the nth substance listed; settings: 101 kPa, Liquid, Frequency=0.1 MHz, Coaxial cylinder capacitor, x2 = 0
[5] = refractive index (Na D-line) (dimensionless); xn = mol fraction of the nth substance listed; settings: 101 kPa, Liquid, Standard Abbe refractometry, x2 = 0

C1COCCO1 [1,4-dioxane]
Settings | refractive index, 298.2 K | refractive index, 303.2 K | refractive index, 308.2 K | refractive index, 313.2 K | refractive index, 318.2 K | relative permittivity, 298.2 K | relative permittivity, 303.2 K | relative permittivity, 308.2 K | relative permittivity, 313.2 K | relative permittivity, 318.2 K
[1] | 1.4201 ± 0.0005 | 1.4174 ± 0.0005 | 1.4145 ± 0.0005 | 1.4118 ± 0.0005 | 1.4088 ± 0.0005 | – | – | – | – | –
[3] | – | – | – | – | – | 2.23 ± 0.02 | 2.22 ± 0.02 | 2.21 ± 0.02 | 2.2 ± 0.02 | 2.19 ± 0.02

Settings | mass density [kg/m3]
[2] | 1027.89 ± 0.12

CCCCCCCCO [octan-1-ol]
Settings | refractive index, 298.2 K | refractive index, 303.2 K | refractive index, 308.2 K | refractive index, 313.2 K | refractive index, 318.2 K | relative permittivity, 298.2 K | relative permittivity, 303.2 K | relative permittivity, 308.2 K | relative permittivity, 313.2 K | relative permittivity, 318.2 K
[1] | 1.4276 ± 0.0005 | 1.4254 ± 0.0005 | 1.423 ± 0.0005 | 1.4205 ± 0.0005 | 1.4184 ± 0.0005 | – | – | – | – | –
[3] | – | – | – | – | – | 9.81 ± 0.03 | 9.38 ± 0.03 | 8.94 ± 0.03 | 8.52 ± 0.03 | 8.11 ± 0.03

Settings | mass density [kg/m3]
[2] | 821.69 ± 0.24

C1COCCO1 [1,4-dioxane] + CC(O)CCO
Settings | refractive index, 298.2 K | refractive index, 303.2 K | refractive index, 308.2 K | refractive index, 313.2 K | refractive index, 318.2 K | relative permittivity, 298.2 K | relative permittivity, 303.2 K | relative permittivity, 308.2 K | relative permittivity, 313.2 K | relative permittivity, 318.2 K
[4] | – | – | – | – | – | 2.23 ± 0.02 | 2.22 ± 0.02 | 2.21 ± 0.02 | 2.2 ± 0.02 | 2.19 ± 0.02
[5] | 1.4201 ± 0.0005 | 1.4174 ± 0.0005 | 1.4145 ± 0.0005 | 1.4118 ± 0.0005 | 1.4088 ± 0.0005 | – | – | – | – | –

CC(O)CCO (stereo not drawn) [1,3-butanediol]
Settings | refractive index, 298.2 K | refractive index, 303.2 K | refractive index, 308.2 K | refractive index, 313.2 K | refractive index, 318.2 K | relative permittivity, 298.2 K | relative permittivity, 303.2 K | relative permittivity, 308.2 K | relative permittivity, 313.2 K | relative permittivity, 318.2 K
[1] | 1.4384 ± 0.0005 | 1.4371 ± 0.0005 | 1.4356 ± 0.0005 | 1.4341 ± 0.0005 | 1.4328 ± 0.0005 | – | – | – | – | –
[3] | – | – | – | – | – | 28.52 ± 0.04 | 27.66 ± 0.04 | 26.77 ± 0.04 | 25.98 ± 0.04 | 25.22 ± 0.04

Settings | mass density [kg/m3]
[2] | 1001.2 ± 0.24

CCCCCCCCO [octan-1-ol] + CC(O)CCO
Settings | refractive index, 298.2 K | refractive index, 303.2 K | refractive index, 308.2 K | refractive index, 313.2 K | refractive index, 318.2 K | relative permittivity, 298.2 K | relative permittivity, 303.2 K | relative permittivity, 308.2 K | relative permittivity, 313.2 K | relative permittivity, 318.2 K
[4] | – | – | – | – | – | 9.81 ± 0.03 | 9.38 ± 0.03 | 8.94 ± 0.03 | 8.52 ± 0.03 | 8.11 ± 0.03
[5] | 1.4276 ± 0.0005 | 1.4254 ± 0.0005 | 1.423 ± 0.0005 | 1.4205 ± 0.0005 | 1.4184 ± 0.0005 | – | – | – | – | –
